Tests used:
alfalfa [1] = test: Test D pre-emergence on soil; format: in vivo; conditions: 1/8 kg/ha
Source text: (§1) The high herbicidal activity of one of the compounds from within the scope of the invention is evident from the results obtained in this test. The experiment concerned pre-emergence applications on soil. The containers used were 25 cm diameter plastic pots filled with Fallsington silt loam. One set of pots was planted to weeds the seeds of which were uniformly mixed with the top 1.2 cm layer of soil. The species selected were: johnsongrass (Sorghum halepense), barnyardgrass (Echinochloa crusgalli), crabgrass (Digitaria sanguinalis), giant foxtail (Setaria faberii), velvetleaf (Abutilon theophrasti), jimsonweed (Datura stramonium), mustard (Brassica arvensis) and pigweed (Amaranthus retroflexus). Another set of pots was planted to the following crops with from one to four species per pot: corn (planting depth 3.7 cm), cotton, soybeans, sunflower, Clinton oats, wheat, Black Valentine beans, rice, sorghum, peas, flax and peanuts (all at 2.5 cm depth), cucumbers, cabbage, alfalfa, safflower, sugarbeets, tomato, spinach, barley and Kentucky bluegrass (all at 1.2 cm depth). Immediately after planting, the test chemical was applied to the soil surfaces dissolved in a non-phytotoxic solvent. One pot from the weed phase and one of each of the crop species were left untreated for the purpose of comparison. The treated and untreated pots were promptly watered with approximately 4 mm of simulated rainfall and then held in a greenhouse for several weeds. Visual weed and crop response ratings were made 28 days after treatment utilizing the rating system as described above for test procedure A. The data are given in Table XV.

cabbage = test: Test D pre-emergence on soil; format: in vivo; conditions: 1/8 kg/ha
Source text: as §1

corn = test: Test D pre-emergence on soil; format: in vivo; conditions: 1/8 kg/ha
Source text: as §1

grasses = test: Test D pre-emergence on soil; format: in vivo; conditions: 1/64 kg/ha
Source text: as §1

sorghum = test: Test D pre-emergence on soil; format: in vivo; conditions: 1/8 kg/ha
Source text: as §1

spinach = test: Test D pre-emergence on soil; format: in vivo; conditions: 1/8 kg/ha
Source text: as §1

wheat = test: Test D pre-emergence on soil; format: in vivo; conditions: 1/8 kg/ha
Source text: as §1

sugarbeet = test: Test D pre-emergence on soil; format: in vivo, sugarbeets; conditions: 1/8 kg/ha
Source text: as §1, with “The treated and untreated pots were promptly watered with approximately 4 mm of simulated rainfall and then held in a greenhouse for several weeds. Visual weed and crop response ratings were made 28 days after treatment utilizing the rating system as described above for test procedure A. The data are given in Table XV.” left out

pea = test: Test D pre-emergence on soil; format: in vivo, peas; conditions: 1/8 kg/ha
Source text: as §1, with “The treated and untreated pots were promptly watered with approximately 4 mm of simulated rainfall and then held in a greenhouse for several weeds. Visual weed and crop response ratings were made 28 days after treatment utilizing the rating system as described above for test procedure A. The data are given in Table XV.” left out

Ky. bluegrass = test: Test D pre-emergence on soil; format: in vivo, Kentucky bluegrass; conditions: 1/8 kg/ha
Source text: as §1, with “The treated and untreated pots were promptly watered with approximately 4 mm of simulated rainfall and then held in a greenhouse for several weeds. Visual weed and crop response ratings were made 28 days after treatment utilizing the rating system as described above for test procedure A. The data are given in Table XV.” left out

mustard = test: Test E pre-emergence; format: in vivo, Brassica arvensis
Source text: (§2) The containers used were 25 cm diameter plastic pots filled with fertilized and limed Fallsington silt loam. Plantings of the following weed species were made twice, at a 10-day interval: mustard (Brassica arvensis), cocklebur (Xanthium spp.), morningglory (Ipomoea hederacea), cassia (Cassia tora), velvetleaf (Abutilon theophrasti), alfalfa (used as an indicator species), kochia (Kochia scoparia), sesbania (Sesbania exaltata), Russian thistle (Salsola kali), jimsonweed (Datura stramonium),and nutsedge (Cyperus rotundus). In addition, wheat and barley were planted in separate 15 cm diameter plastic pots filled with the same soil at the time of the early planting only. All plantings were treated with the test chemicals dissolved in a non-phytotoxic solvent immediately following completion of the second planting operation. At this time, the wheat was around 15-17.5 cm tall and the barley 12.5 to 15 cm tall, both in the 2-leaf stage of growth. The weed species of the earliest planting date were from 2.5 to 12.5 cm tall. The rates of application selected were 0.004, 0.007, 0.015 and 0.030 kg/ha for the weed phase and 0.12, 0.25 and 0.50 kg/ha for wheat and barley. The post-emergence part of this test was visually rated for plant response 21 days after treatment, and the pre-emergence part 28 days after treatment.

morningglory = test: Test E pre-emergence; format: in vivo, Ipomoea hederacea
Source text: as §2

velvetleaf = test: Test E pre-emergence; format: in vivo, Abutilon theophrasti
Source text: as §2

alfalfa [2] = test: Test E pre-emergence; format: in vivo; conditions: 1/256 kg/ha
Source text: as §2

kochia = test: Test E pre-emergence; format: in vivo, Kochia scoparia
Source text: as §2

Russian thistle = test: Test E pre-emergence; format: in vivo, Salsola kali
Source text: as §2

nutsedge = test: Test E pre-emergence; format: in vivo, Cyperus rotundus
Source text: as §2

purple nutsedge [3] = test: Test F soil surface spray; format: in vivo, Cyperus rotundus
Source text: (§3) Purple nutsedge tubers (Cyperus rotundus) were planted about 2 cm deep in Fallsington silt loam contained in plastic pots 10 cm in diameter. Five tubers were put in each pot. Compounds of this invention were sprayed dissolved in a non-phytotoxic solvent at a volume rate of 560 l/ha. in four different methods of treatment, i.e., soil surface spray, tuber/soil spray, soil incorporated and post-emergence. For the soil surface spray, the compounds were sprayed on the firmed soil surface immediately after planting. For the tuber/soil spray, the compounds were sprayed on the exposed tubers and subtending soil before the untreated covering soil was added. Soil incorporation treatments were mixed in the covering soil. Post-emergence treatments were sprayed on the nutsedge foliage and surrounding soil surface after the nutsedge had emerged and had reached the height of about 12 cm.
(§4) Immediately after spraying the surface spray, tuber/soil spray and soil incorporated treatments were misted with about 0.3 cm of water over a 90 minute period and then placed in the greenhouse. Post-emergence treatments were placed directly into the greenhouse and watered carefully so that treatments would not be washed from the foliage.

purple nutsedge [4] = test: Test F tuber/soil spray; format: in vivo, Cyperus rotundus
Source text: as §3, §4

purple nutsedge [5] = test: Test F soil incorporated; format: in vivo, Cyperus rotundus
Source text: as §3, §4

purple nutsedge [6] = test: Test F post-emergence; format: in vivo, Cyperus rotundus
Source text: as §3, §4

Compound: COC(=O)c1ccccc1S(=O)(=O)NC(=O)Nc1nc(OC)cc(OC)n1 [drawing 586]
- response rating (alfalfa [1]): 10C
- response rating (cabbage): 10C
- response rating (corn): 10C
- response rating (grasses): 6G
- response rating (sorghum): 10C
- response rating (spinach): 10C
- response rating (wheat): 10C
- response rating (sugarbeet): 10C
- response rating (pea): 10C
- response rating (Ky. bluegrass): 10C

Compound: COc1nc(C)nc(NC(=O)NS(=O)(=O)c2ccccc2C(=O)OC(C)C)n1 [drawing 588]
- response rating (mustard; 1/32 kg/ha): 10C
- response rating (mustard; 1/64 kg/ha): 10C
- response rating (mustard; 1/128 kg/ha): 10C
- response rating (mustard; 1/256 kg/ha): 10C
- response rating (morningglory; 1/32 kg/ha): 10C
- response rating (morningglory; 1/64 kg/ha): 10C
- response rating (velvetleaf; 1/32 kg/ha): 10C
- response rating (velvetleaf; 1/64 kg/ha): 10C
- response rating (alfalfa [2]): 7G
- response rating (kochia; 1/32 kg/ha): 10C
- response rating (kochia; 1/64 kg/ha): 10C
- response rating (kochia; 1/128 kg/ha): 10C
- response rating (Russian thistle; 1/32 kg/ha): 10C
- response rating (Russian thistle; 1/64 kg/ha): 10C
- response rating (Russian thistle; 1/128 kg/ha): 8C
- response rating (Russian thistle; 1/256 kg/ha): 7C
- response rating (nutsedge; 1/32 kg/ha): 8G
- response rating (nutsedge; 1/64 kg/ha): 8G

Compound: COC(=O)c1cc(Cl)ccc1S(=O)(=O)NC(=O)Nc1nc(OC)nc(OC)n1 [drawing 603]
- response rating after 4 weeks (purple nutsedge [3]; .008 kg/ha): 3G
- response rating after 4 weeks (purple nutsedge [3]; .032 kg/ha): 7G
- response rating after 4 weeks (purple nutsedge [3]; .125 kg/ha): 9G
- response rating after 4 weeks (purple nutsedge [4]; .008 kg/ha): 4G
- response rating after 4 weeks (purple nutsedge [4]; .032 kg/ha): 7G
- response rating after 4 weeks (purple nutsedge [4]; .125 kg/ha): 9G
- response rating after 4 weeks (purple nutsedge [5]; .008 kg/ha): 5G
- response rating after 4 weeks (purple nutsedge [5]; .032 kg/ha): 7G
- response rating after 4 weeks (purple nutsedge [5]; .125 kg/ha): 9G
- response rating after 4 weeks (purple nutsedge [6]; .008 kg/ha): 3G
- response rating after 4 weeks (purple nutsedge [6]; .125 kg/ha): 10C

Reference: patent publication US4383113A, “Agricultural sulfonamides” (E. I. Du Pont de Nemours and Company, priority 1981, dated 1983)
